# According to patent US20130252930A1 (BIOMARIN PHARMACEUTICAL INC., priority 2010, published 2013):
# Molecular target: T1, CYP17 (human testicular microsome) (Homo sapiens, UniProt P05093)
# T1 construct: using microsomal fraction from human testis (Celsis Cat #S00110) as the enzyme source; tissue Celsis S00110; host or cells: human testis microsomal fraction
# T1 sequence (P05093 1-508): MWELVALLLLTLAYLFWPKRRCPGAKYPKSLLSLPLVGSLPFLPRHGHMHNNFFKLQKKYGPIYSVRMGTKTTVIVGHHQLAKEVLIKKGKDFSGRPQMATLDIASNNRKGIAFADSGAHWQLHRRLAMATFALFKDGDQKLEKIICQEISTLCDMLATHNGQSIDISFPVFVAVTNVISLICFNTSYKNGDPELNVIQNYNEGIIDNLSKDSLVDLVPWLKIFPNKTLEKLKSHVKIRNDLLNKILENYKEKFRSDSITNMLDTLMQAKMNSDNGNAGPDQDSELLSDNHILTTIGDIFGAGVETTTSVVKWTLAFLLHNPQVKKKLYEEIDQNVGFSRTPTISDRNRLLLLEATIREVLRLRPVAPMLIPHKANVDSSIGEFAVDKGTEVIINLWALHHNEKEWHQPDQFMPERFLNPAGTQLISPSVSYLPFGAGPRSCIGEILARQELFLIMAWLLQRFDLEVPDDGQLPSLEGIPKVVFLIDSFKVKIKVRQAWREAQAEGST
# Test: CYP17 enzymatic assay (% inhibition at 1 nM) (Biological Example 12)
# Assay type: biochemical
# Conditions: compound at 1 nM, read-out: Biological Example No. 12: CYP17 enzymatic assay % inhibition at 1 nM
row,Structure (SMILES),inhibition at 0.001 µM [%]
1,"C[C@H]1C2CCC3C(CC[C@]4(C)C(c5cncc(C(F)F)c5)=CCC34)[C@@]2(C)CC[C@@H]1O (stereo partly drawn) [Compound 307, (3S,4S,10R,13S)-17-(5-(difluoromethyl)pyridin-3-yl)-4,10,13-trimethyl-2,3,4,5,6,7,8,9,10,11,12,13,14,15-tetradecahydro-1H-cyclopenta[a]phenanthren-3-ol]",10 to 50
2,"C[C@H]1C2CCC3C(CC[C@]4(C)C(c5cncc(C(F)F)c5)=CCC34)[C@@]2(C)CC[C@H]1O (stereo partly drawn) [Compound 308, (3R,4S,10R,13S)-17-(5-(difluoromethyl)pyridin-3-yl)-4,10,13-trimethyl-2,3,4,5,6,7,8,9,10,11,12,13,14,15-tetradecahydro-1H-cyclopenta[a]phenanthren-3-ol]",< 10
3,"CC1=C2CCC3C(CC[C@]4(C)C(c5cccnc5)=CCC34)[C@@]2(C)CC/C1=N\O (stereo partly drawn) [Compound 364, (10R,13S,E)-4,10,13-trimethyl-17-(pyridin-3-yl)-6,7,8,9,10,11,12,13,14,15-decahydro-1H-cyclopenta[a]phenanthren-3(2H)-one oxime]",10 to 50
4,"C[C@]12CC(O)CC1CCC1C2CC[C@]2(C)C(c3cncc(Cl)c3)=CCC12 (stereo partly drawn) [Compound 397, (3aS,5aS)-6-(5-chloropyridin-3-yl)-3a,5a-dimethyl-1,2,3,3a,3b,4,5,5a,8,8a,8b,9,10,10a-tetradecahydrodicyclopenta[a,f]naphthalen-2-ol]",10 to 50
5,"C[C@]12CC[C@H]3[C@@H](CCC45CC4C(O)CC[C@]35C)[C@@H]1CC=C2c1cncc(F)c1 (stereo partly drawn) [Compound 412, (4aR,6aS)-7-(5-fluoropyridin-3-yl)-4a,6a-dimethyl-1a,2,3,4,4a,4b,5,6,6a,9,9a,9b,10,11-tetradecahydro-1H-cyclopenta[a]cyclopropa[j]phenanthren-2-ol]",10 to 50
6,"CC(=O)NC1CC[C@@]2(C)C(CCC3C2CC[C@]2(C)C(c4cccnc4)=CCC32)C1C (stereo partly drawn) [Compound 413, N-((10R,13S)-4,10,13-trimethyl-17-(pyridin-3-yl)-2,3,4,5,6,7,8,9,10,11,12,13,14,15-tetradecahydro-1H-cyclopenta[a]phenanthren-3-yl)acetamide]",< 10
7,"CCNC(=O)NC1CC[C@@]2(C)C(CCC3C2CC[C@]2(C)C(c4cccnc4)=CCC32)C1C (stereo partly drawn) [Compound 414, 1-ethyl-3-((10R,13S)-4,10,13-trimethyl-17-(pyridin-3-yl)-2,3,4,5,6,7,8,9,10,11,12,13,14,15-tetradecahydro-1H-cyclopenta[a]phenanthren-3-yl)urea]",< 10
8,"CC1C[C@@]2(C)C(CC[C@@H]3[C@@H]2CC[C@]2(C)C(c4cccnc4)=CC[C@@H]32)C(C)C1=O (stereo partly drawn) [Compound 415, (10R,13S)-2,4,10,13-tetramethyl-17-(pyridin-3-yl)-4,5,6,7,8,9,10,11,12,13,14,15-dodecahydro-1H-cyclopenta[a]phenanthren-3(2H)-one]",< 10
9,"CC1C[C@@]2(C)C(CC[C@@H]3[C@@H]2CC[C@]2(C)C(c4cccnc4)=CC[C@@H]32)C(C)C1O (stereo partly drawn) [Compound 416, (10R,13S)-2,4,10,13-tetramethyl-17-(pyridin-3-yl)-2,3,4,5,6,7,8,9,10,11,12,13,14,15-tetradecahydro-1H-cyclopenta[a]phenanthren-3-ol]",10 to 50
10,"CC1(O)C=C2CC[C@@H]3[C@H](CC[C@]4(C)C(c5cccnc5)=CC[C@@H]34)[C@@]2(C)CC1 (stereo partly drawn) [Compound 422, (10R,13S)-3,10,13-trimethyl-17-(pyridin-3-yl)-2,3,6,7,8,9,10,11,12,13,14,15-dodecahydro-1H-cyclopenta[a]phenanthren-3-ol]",10 to 50
11,"CC1C[C@@H]2[C@H](CC[C@]3(C)C(c4cccnc4)=CC[C@@H]23)[C@@]2(C)CCC(C)(O)C=C12 (stereo partly drawn) [Compound 423, (10R,13S)-3,6,10,13-tetramethyl-17-(pyridin-3-yl)-2,3,6,7,8,9,10,11,12,13,14,15-dodecahydro-1H-cyclopenta[a]phenanthren-3-ol]",10 to 50
12,"CC1CC2C(CC[C@]3(C)C(c4cccnc4)=CCC23)[C@@]2(C)CC[C@@](C)(O)CC12 (stereo partly drawn) [Compound 424, (3R,10S,13S)-3,6,10,13-tetramethyl-17-(pyridin-3-yl)-2,3,4,5,6,7,8,9,10,11,12,13,14,15-tetradecahydro-1H-cyclopenta[a]phenanthren-3-ol]",10 to 50
13,"CC1CC2C(CC[C@]3(C)C(c4cccnc4)=CCC23)[C@@]2(C)CC[C@](C)(O)CC12 (stereo partly drawn) [Compound 425, (3S,10S,13S)-3,6,10,13-tetramethyl-17-(pyridin-3-yl)-2,3,4,5,6,7,8,9,10,11,12,13,14,15-tetradecahydro-1H-cyclopenta[a]phenanthren-3-ol]",10 to 50
14,"CN1C(=O)CC[C@@]2(C)C1=CCC1C2CC[C@]2(C)C(c3cncc(C(F)F)c3)=CCC12 (stereo partly drawn) [Compound 429, (4aR,6aS)-7-(5-(difluoromethyl)pyridin-3-yl)-1,4a,6a-trimethyl-4,4a,4b,5,6,6a,9,9a,9b,10-decahydro-1H-indeno[5,4-f]quinolin-2(3H)-one]",< 10
15,"CN1C(=O)CC[C@@]2(C)C1=CC[C@@H]1[C@@H]2CC[C@]2(C)C(c3cnccc3F)=CC[C@@H]12 [Compound 430, (4aR,6aS)-7-(4-fluoropyridin-3-yl)-1,4a,6a-trimethyl-4,4a,4b,5,6,6a,9,9a,9b,10-decahydro-1H-indeno[5,4-f]quinolin-2(3H)-one]",10 to 50
16,"C[C@]12CCC(O)(CCCO)CC1CC[C@@H]1[C@@H]2CC[C@]2(C)C(c3cccnc3)=CC[C@@H]12 (stereo partly drawn) [Compound 440, (10S,13S)-3-(3-hydroxypropyl)-10,13-dimethyl-17-(pyridin-3-yl)-2,3,4,5,6,7,8,9,10,11,12,13,14,15-tetradecahydro-1H-cyclopenta[a]phenanthren-3-ol]",10 to 50

# Same assay, conditions: compound at 1 nM, read-out: CYP17 enzymatic assay % inhibition at 1 nM (Biological Example No. 12)
row,Structure (SMILES),inhibition at 0.001 µM [%]
1,"C[C@]12CCC3C(CC4OC45C[C@@H](O)CC[C@]35C)C1=CC=C2c1cccnc1 (stereo partly drawn) [Compound 439, (3S,9aS,11bR)-9a,11b-dimethyl-9-(pyridin-3-yl)-1,2,3,4,5a,6,6a,9a,10,11,11a,11b-dodecahydrocyclopenta[1,2]phenanthro[8a,9-b]oxiren-3-ol]",> 50
2,"COC1CC[C@@]2(C)C(=CCC3C2CC[C@]2(C)C(c4cccnc4)=CCC32)C1 (stereo partly drawn) [Compound 453, 3-((10R,13S)-3-methoxy-10,13-dimethyl-2,3,4,7,8,9,10,11,12,13,14,15-dodecahydro-1H-cyclopenta[a]phenanthren-17-yl)pyridine]",< 10
3,"COC1CC[C@@]2(C)C(=CCC3C2CC[C@]2(C)C(c4cncc(C)c4)=CCC32)C1 (stereo partly drawn) [Compound 454, 3-((10R,13S)-3-methoxy-10,13-dimethyl-2,3,4,7,8,9,10,11,12,13,14,15-dodecahydro-1H-cyclopenta[a]phenanthren-17-yl)-5-methylpyridine]",< 10
4,"CCc1cncc(C2=CC[C@H]3[C@@H]4CC[C@H]5C[C@@H](OC)CC[C@]5(C)[C@H]4CC[C@]23C)c1 [Compound 455, 3-ethyl-5-((3S,5S,8R,9S,10S,13S,14S)-3-methoxy-10,13-dimethyl-2,3,4,5,6,7,8,9,10,11,12,13,14,15-tetradecahydro-1H-cyclopenta[a]phenanthren-17-yl)pyridine]",10 to 50
5,"COc1cncc(C2=CC[C@H]3[C@@H]4CC[C@H]5C[C@@H](OC)CC[C@]5(C)[C@H]4CC[C@]23C)c1 [Compound 456, 3-methoxy-5-((3S,5S,8R,9S,10S,13S,14S)-3-methoxy-10,13-dimethyl-2,3,4,5,6,7,8,9,10,11,12,13,14,15-tetradecahydro-1H-cyclopenta[a]phenanthren-17-yl)pyridine]",10 to 50
6,"CCOc1cncc(C2=CC[C@H]3[C@@H]4CC[C@H]5C[C@@H](OC)CC[C@]5(C)[C@H]4CC[C@]23C)c1 [Compound 457, 3-ethoxy-5-((3S,5S,8R,9S,10S,13S,14S)-3-methoxy-10,13-dimethyl-2,3,4,5,6,7,8,9,10,11,12,13,14,15-tetradecahydro-1H-cyclopenta[a]phenanthren-17-yl)pyridine]",10 to 50
7,"CO[C@H]1CC[C@@]2(C)[C@@H](CC[C@@H]3[C@@H]2CC[C@]2(C)C(c4cnccc4C)=CC[C@@H]32)C1 [Compound 458, 3-((3S,5S,8R,9S,10S,13S,14S)-3-methoxy-10,13-dimethyl-2,3,4,5,6,7,8,9,10,11,12,13,14,15-tetradecahydro-1H-cyclopenta[a]phenanthren-17-yl)-4-methylpyridine]",10 to 50

# Same assay, conditions: test compound at 1 nM, read-out: CYP17 enzymatic assay percent inhibition at 1 nM (Biological Example No. 12)
row,inhibition at 0.001 µM [%],Structure (SMILES)
1,10 to 50,"CC1(O)CC2CC[C@@H]3[C@H](CC[C@]4(C)C(c5cccnc5)=CC[C@@H]34)[C@@]2(C)C1 (stereo partly drawn) [Compound 400, (3aS,5aS)-2,3a,5a-trimethyl-6-(pyridin-3-yl)-1,2,3,3a,3b,4,5,5a,8,8a,8b,9,10,10a-tetradecahydrodicyclopenta[a,f]naphthalen-2-ol]"
2,10 to 50,"C[C@]12CC(F)(F)CC1CCC1C2CC[C@]2(C)C(c3cccnc3)=CCC12 (stereo partly drawn) [Compound 407, 3-((8aS,10aS)-7,7-difluoro-8a,10a-dimethyl-3,3a,3b,4,5,5a,6,7,8,8a,8b,9,10,10a-tetradecahydrodicyclopenta[a,f]naphthalen-1-yl)pyridine]"
